Reference: patent US12291519B2, “2-hydroxycycloalkane-1-carbamoyl” (Idorsia Pharmaceuticals Ltd, priority 2019, dated 2025)
pIC50: −log10 of the molar value.

Legend:
[1] = molecular target: human Gal-3 (hGal-3) (Homo sapiens (Human), UniProt P17931); assay: Competitive binding assay: biotinylated hGal-3 binding to microplate-adsorbed asialofetuin (ASF); settings: Activity on hGal-3; binding of biotinylated hGal-3 to ASF-coated plates; mean values
Outline: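 Serially diluted compounds competed with biotinylated human Gal-3 for binding to plate-adsorbed asialofetuin over 3 h at 4 °C. Bound Gal-3 was detected with streptavidin-peroxidase (80 ng/mL, 1 h, 4 °C) and ABTS substrate. IC50 values are means of several measurements.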

[2] = molecular target: human Gal-1 (hGal-1) (Homo sapiens, UniProt P09382); assay: Competitive binding assay: biotinylated hGal-1 binding to microplate-adsorbed asialofetuin (ASF); settings: Activity on hGal-1; binding of biotinylated hGal-1 to ASF-coated plates; mean values
Sequence of human Gal-1 (hGal-1) (Homo sapiens, UniProt P09382) (P09382 2-135 limits assumed): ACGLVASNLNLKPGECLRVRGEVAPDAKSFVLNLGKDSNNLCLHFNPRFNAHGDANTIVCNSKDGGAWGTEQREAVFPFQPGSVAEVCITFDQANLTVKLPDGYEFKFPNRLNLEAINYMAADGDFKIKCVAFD
Outline: (§1)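 Biotinylated hGal-1 (300–1000 ng/mL; optionally a cysteine-free all-serine variant) incubated 3 h at 4 °C with compound on asialofetuin-coated plates, then streptavidin-peroxidase 1 h at 4 °C. ABTS readout at OD 410 nm after 30–45 min; IC50 given as mean of several runs.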

[3] = molecular target: human Gal-1 (hGal-1); assay: as above; settings: Activity on hGal-1; binding of biotinylated hGal-1 to ASF-coated plates; mean values
Sequence of human Gal-1 (hGal-1) (P09382 2-135 limits assumed): as above
Outline: as §1

Sequence of human Gal-3 (hGal-3) (P17931 whole entry): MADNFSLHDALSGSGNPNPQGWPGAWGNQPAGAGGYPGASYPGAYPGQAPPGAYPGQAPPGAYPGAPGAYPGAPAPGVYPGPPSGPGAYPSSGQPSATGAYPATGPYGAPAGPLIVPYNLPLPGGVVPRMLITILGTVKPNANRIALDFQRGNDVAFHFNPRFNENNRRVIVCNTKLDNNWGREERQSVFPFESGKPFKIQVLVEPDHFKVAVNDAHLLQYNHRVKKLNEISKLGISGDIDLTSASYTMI

Row | pIC50 [1] | pIC50 [3] | Compound | pIC50 [2]
1 | 7.89 | 6.58 | CO[C@@H]1[C@@H](n2cc(-c3cc(F)c(F)c(F)c3)nn2)[C@@H](O)[C@@H](CO)O[C@H]1C(=O)N(c1cc(Br)cc(Br)c1)[C@H]1CCCC[C@@H]1O [Example 97, (2R,3R,4S,5R,6R)-N-(3,5-dibromophenyl)-5-hydroxy-N-((1S,2S)-2-hydroxycyclohexyl)-6-(hydroxymethyl)-3-methoxy-4-(4-(3,4,5-trifluorophenyl)-1H-1,2,3-triazol-1-yl)tetrahydro-2H-pyran-2-carboxamide] | –
2 | 6.39 | 4.64 | O=C([C@@H]1O[C@H](CO)[C@H](O)[C@H](n2cc(-c3cc(F)c(F)c(F)c3)nn2)[C@H]1O)N(Cc1ncc(Cl)s1)[C@H]1CCCC[C@@H]1O [Example 23, (2R,3R,4S,5R,6R)-N-((5-chlorothiazol-2-yl)methyl)-3,5-dihydroxy-N-((1S,2S)-2-hydroxycyclohexyl)-6-(hydroxymethyl)-4-(4-(3,4,5-trifluorophenyl)-1H-1,2,3-triazol-1-yl)tetrahydro-2H-pyran-2-carboxamide] | –
3 | 7.15 | 5.72 | O=C([C@@H]1O[C@H](CO)[C@H](O)[C@H](n2cc(-c3cc(F)c(F)c(F)c3)nn2)[C@H]1O)N(Cc1ccccc1Cl)[C@H]1CCCC[C@@H]1O [Example 6, (2R,3R,4S,5R,6R)-N-(2-chlorobenzyl)-3,5-dihydroxy-N-((1S,2S)-2-hydroxycyclohexyl)-6-(hydroxymethyl)-4-(4-(3,4,5-trifluorophenyl)-1H-1,2,3-triazol-1-yl)tetrahydro-2H-pyran-2-carboxamide] | –
4 | 6.80 | 5.37 | CO[C@@H]1[C@@H](n2cc(-c3cc(F)c(F)c(F)c3)nn2)[C@@H](O)[C@@H](CO)O[C@H]1C(=O)N(c1ccc(Cl)cc1)[C@H]1CCCC[C@@H]1O [Example 111, (2R,3R,4S,5R,6R)-N-(4-chlorophenyl)-5-hydroxy-N-((1S,2S)-2-hydroxycyclohexyl)-6-(hydroxymethyl)-3-methoxy-4-(4-(3,4,5-trifluorophenyl)-1H-1,2,3-triazol-1-yl)tetrahydro-2H-pyran-2-carboxamide] | –

Row | Compound | pIC50 [1] | pIC50 [3] | pIC50 [2]
5 | (2R,3R,5R,6R)—N-(3,5-dichlorophenyl)-5-hydroxy-N-(1S,2S)-2-hydroxycyclohexyl-3-(2-hydroxyethoxy)-6-(hydroxymethyl)-4-(4-(3,4,5-trifluorophenyl)-1H-1,2,3-triazol-1-yl)tetrahydro-2H-pyran-2-carboxamide [Example 196] | 7.68 | – | 6.79
6 | CO[C@@H]1[C@@H](n2cc(-c3cc(F)c(C)c(F)c3)nn2)[C@@H](O)[C@@H](CO)O[C@H]1C(=O)N(c1cc(F)cc(Br)c1)[C@H]1CCCC[C@@H]1O [Example 160, (2R,3R,4S,5R,6R)-N-(3-bromo-5-fluorophenyl)-4-(4-(3,5-difluoro-4-methylphenyl)-1H-1,2,3-triazol-1-yl)-5-hydroxy-N-((1S,2S)-2-hydroxycyclohexyl)-6-(hydroxymethyl)-3-methoxytetrahydro-2H-pyran-2-carboxamide] | 7.96 | – | 5.75
